“Also recorded” adds a separate entry of the source.
Columns and labels:
Assay type in all cases: physicochemical
[1] = Polymorphic stability of form III and form IV under stress storage, PXRD; conditions: 21 days;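 further: open storage at 90 °C with 3% RH or 78% RH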
Method: A Bruker D2 Phaser X-Ray Diffractometer (XRD, EQ-SSRD-XRD-01) can be used for characterizing the samples. Raw results are evaluated using DIFFRAC.EVA (Bruker, V5.0) software. The Kα2 contribution was stripped, and a peak search was performed using peak search parameters (width 0.302 and threshold 1.0).
A test sample (approximately 0.3 g) is representatively subsampled into an agate-type mortar and pestle. Sample is ground for approximately one minute to achieve a fine homogenous powder. Sample is then transferred into a stainless-steel sample holder fitted with a zero-diffraction plate (ZDP). The sample holder is then levelled off with a glass slide to create a flat sample surface level with the sample holder.

[2] = Chemical stability of solid state forms under temperature/humidity stress, related substances by HPLC at 252 nm; parameters: Impurity I / Impurity A / Impurity B / Impurity C / Impurity D / Impurity E / Impurity F / Impurity G / Impurity H: unit not given here
From the text: To do so, control samples are stored refrigerated in the presence of desiccant for the duration of the study and measured simultaneously with stressed samples by HPLC at a wavelength of 252 nm.

[3] = Thermogravimetric Analysis (TGA); conditions: 20° C./min
Method: The methodology for this can be as follows. Solid compounds (˜5 mg) are placed in an aluminium pan and sealed. The instrument used for the analysis is a TA Instruments TGA 550. The same sample lots from DSC testing are used for TGA testing. Processing is completed using TRIOS software.

[4] = Dynamic Vapor Sorption (DVS) sorption isotherms, hygroscopic behaviour; conditions: for Hygroscopicity: DVS classification; for Δm (0-80%), moisture absorbed at 80% RH / Δm (0-90%), maximum water uptake: DVS, 25.0 ±1.0° C.; for Δm (0-90%), maximum water uptake: up to 90% RH; for Hysteresis: between sorption and desorption curves
Method: The methodology for this can be as follows. The mass of the solids is monitored as the relative humidity (RH) was deliberately changed. The RH is cycled twice from 0% to 90% to 0% in 10% steps. The temperature during measurement is kept constantly at (25.0 ±1.0° C.) Each step is held until mass stability was achieved. A camera inside the instrument captured an image at the conclusion of each stage, allowing for the observation of any visual changes in the solid form during the analysis.

[5] = Control 1, stored refrigerated with desiccant
[6] = Control 2, stored refrigerated with desiccant
[7] = Control 3, stored refrigerated with desiccant

Polymorphic stability by PXRD ([1]; open storage 90° C./3% RH, listed as form III): neither form underwent phase changes
Polymorphic stability by PXRD ([1]; open storage 90° C./78% RH, listed as form III): neither form underwent phase changes
Color change after stressing ([2]; 60-90° C., 3-79% RH, up to 21 days): No color changes
Impurity A ([2]; 60° C./75% RH, 21 days): 0.067
Impurity B ([2]; 60° C./75% RH, 21 days): 0.012
Impurity C ([2]; 60° C./75% RH, 21 days): 0.023
Impurity D ([2]; 60° C./75% RH, 21 days): 0.134
Impurity E ([2]; 60° C./75% RH, 21 days): 0.057
Impurity F ([2]; 60° C./75% RH, 21 days): 0
Impurity G ([2]; 60° C./75% RH, 21 days): 0.019
Impurity H ([2]; 60° C./75% RH, 21 days): 0.140
Impurity I ([2]; 60° C./75% RH, 21 days): 0.014
Impurity A ([2]; 70° C./62% RH, 21 days): 0.064
Impurity B ([2]; 70° C./62% RH, 21 days): 0.012
Impurity C ([2]; 70° C./62% RH, 21 days): 0.024
Impurity D ([2]; 70° C./62% RH, 21 days): 0.119
Impurity E ([2]; 70° C./62% RH, 21 days): 0.059
Impurity F ([2]; 70° C./62% RH, 21 days): 0.006
Impurity G ([2]; 70° C./62% RH, 21 days): 0.019
Impurity H ([2]; 70° C./62% RH, 21 days): 0.139
Impurity I ([2]; 70° C./62% RH, 21 days): 0.015
Impurity A ([2]; 75° C./41% RH, 21 days): 0.066
Impurity B ([2]; 75° C./41% RH, 21 days): 0.011
Impurity C ([2]; 75° C./41% RH, 21 days): 0.025
Impurity D ([2]; 75° C./41% RH, 21 days): 0.118
Impurity E ([2]; 75° C./41% RH, 21 days): 0.062
Impurity F ([2]; 75° C./41% RH, 21 days): 0.009
Impurity G ([2]; 75° C./41% RH, 21 days): 0.019
Impurity H ([2]; 75° C./41% RH, 21 days): 0.136
Impurity I ([2]; 75° C./41% RH, 21 days): 0.010
Impurity A ([2]; 75° C./79% RH, 17 days): 0.066
Impurity B ([2]; 75° C./79% RH, 17 days): 0.012
Impurity C ([2]; 75° C./79% RH, 17 days): 0.031
Impurity D ([2]; 75° C./79% RH, 17 days): 0.106
Impurity E ([2]; 75° C./79% RH, 17 days): 0.074
Impurity F ([2]; 75° C./79% RH, 17 days): 0
Impurity G ([2]; 75° C./79% RH, 17 days): 0.005
Impurity H ([2]; 75° C./79% RH, 17 days): 0.135
Impurity I ([2]; 75° C./79% RH, 17 days): 0.015
Impurity A ([2]; 80° C./11% RH, 21 days): 0.066
Impurity B ([2]; 80° C./11% RH, 21 days): 0.011
Impurity C ([2]; 80° C./11% RH, 21 days): 0.025
Impurity D ([2]; 80° C./11% RH, 21 days): 0.123
Impurity E ([2]; 80° C./11% RH, 21 days): 0.054
Impurity F ([2]; 80° C./11% RH, 21 days): 0.007
Impurity G ([2]; 80° C./11% RH, 21 days): 0.024
Impurity H ([2]; 80° C./11% RH, 21 days): 0.141
Impurity I ([2]; 80° C./11% RH, 21 days): 0.015
Impurity A ([2]; 80° C./61% RH, 17 days): 0.052
Impurity B ([2]; 80° C./61% RH, 17 days): 0.013
Impurity C ([2]; 80° C./61% RH, 17 days): 0.024
Impurity D ([2]; 80° C./61% RH, 17 days): 0.096
Impurity E ([2]; 80° C./61% RH, 17 days): 0.060
Impurity F ([2]; 80° C./61% RH, 17 days): 0.009
Impurity G ([2]; 80° C./61% RH, 17 days): 0.020
Impurity H ([2]; 80° C./61% RH, 17 days): 0.137
Impurity I ([2]; 80° C./61% RH, 17 days): 0.015
Impurity A ([2]; 90° C./3% RH, 21 days): 0.064
Impurity B ([2]; 90° C./3% RH, 21 days): 0.012
Impurity C ([2]; 90° C./3% RH, 21 days): 0.033
Impurity D ([2]; 90° C./3% RH, 21 days): 0.087
Impurity E ([2]; 90° C./3% RH, 21 days): 0.073
Impurity F ([2]; 90° C./3% RH, 21 days): 0
Impurity G ([2]; 90° C./3% RH, 21 days): 0.007
Impurity H ([2]; 90° C./3% RH, 21 days): 0.140
Impurity I ([2]; 90° C./3% RH, 21 days): 0.016
Impurity A ([2]; 90° C./41% RH, 10 days): 0.066
Impurity B ([2]; 90° C./41% RH, 10 days): 0.013
Impurity C ([2]; 90° C./41% RH, 10 days): 0.025
Impurity D ([2]; 90° C./41% RH, 10 days): 0.109
Impurity E ([2]; 90° C./41% RH, 10 days): 0.060
Impurity F ([2]; 90° C./41% RH, 10 days): 0
Impurity G ([2]; 90° C./41% RH, 10 days): 0.022
Impurity H ([2]; 90° C./41% RH, 10 days): 0.138
Impurity I ([2]; 90° C./41% RH, 10 days): 0.013
Impurity A ([2]; 90° C./78% RH, 21 days): 0.065
Impurity B ([2]; 90° C./78% RH, 21 days): 0.011
Impurity C ([2]; 90° C./78% RH, 21 days): 0.023
Impurity D ([2]; 90° C./78% RH, 21 days): 0.112
Impurity E ([2]; 90° C./78% RH, 21 days): 0.057
Impurity F ([2]; 90° C./78% RH, 21 days): 0.006
Impurity G ([2]; 90° C./78% RH, 21 days): 0.021
Impurity H ([2]; 90° C./78% RH, 21 days): 0.133
Impurity I ([2]; 90° C./78% RH, 21 days): 0.014
Impurity A [2, 5]: 0.059
Impurity B [2, 5]: 0.012
Impurity C [2, 5]: 0.026
Impurity D [2, 5]: 0.127
Impurity E [2, 5]: 0.049
Impurity F [2, 5]: 0.008
Impurity G [2, 5]: 0.016
Impurity H [2, 5]: 0.139
Impurity I [2, 5]: 0.014
Impurity A [2, 6]: 0.051
Impurity B [2, 6]: 0.010
Impurity C [2, 6]: 0.023
Impurity D [2, 6]: 0.097
Impurity E [2, 6]: 0.057
Impurity F [2, 6]: 0.006
Impurity G [2, 6]: 0.019
Impurity H [2, 6]: 0.136
Impurity I [2, 6]: 0.016
Impurity A [2, 7]: 0.069
Impurity B [2, 7]: 0.010
Impurity C [2, 7]: 0.024
Impurity D [2, 7]: 0.143
Impurity E [2, 7]: 0.051
Impurity F [2, 7]: 0.007
Impurity G [2, 7]: 0.019
Impurity H [2, 7]: 0.139
Impurity I [2, 7]: 0.016
Chemical stability in the solid state ([2]; up to 21 days at 90° C./78% RH): chemically very stable
TGA change in mass ([3]; Decomposition): 60.862%
TGA onset ([3]; Decomposition): 420.47 °C
TGA change in mass ([3]; Small mass loss event): 1.129%
TGA end ([3]; Small mass loss event): 240.02 °C
TGA onset ([3]; Small mass loss event): 231.13 °C
TGA change in mass ([3]; Small mass loss event, listed as form III): around 1%
Change in visual appearance during the humidity cycles ([4]; DVS camera images): No change in the visual appearance
Hygroscopicity [4]: slightly hygroscopic
Hygroscopicity ([4]; listed as form III): slightly hygroscopic
Δm (0-80%), moisture absorbed at 80% RH [4]: 1.2 wt %
Δm (0-80%), moisture absorbed at 80% RH ([4]; listed as form III): 1.2 wt %
Δm (0-90%), maximum water uptake [4]: 1.7 wt %
Δm (0-90%), maximum water uptake ([4]; listed as form III): 1.7 wt %
Hysteresis [4]: no
Hysteresis ([4]; listed as form III): lack of hysteresis
SMILES: C=CC(=O)NC1CCN(c2ncc3ncnc(Nc4ccc(Oc5ccc6c(c5)ncn6C)c(C)c4)c3n2)CC1 [Form III, N-{1-[8-({3-methyl-4-[(1-methyl-1H-1,3-benzodiazol-5-yl)oxy]phenyl}amino)-[1,3]diazino[5,4-d]pyrimidin-2-yl]piperidin-4-yl}prop-2-enamide]
Polymorphic stability by PXRD ([1]; open storage 90° C./3% RH): stable and conformed to form III reference standard
Polymorphic stability by PXRD ([1]; open storage 90° C./78% RH): stable and conformed to form III reference standard
Increase in related substances ([2]; accelerated stress conditions, up to 21 days at 90° C./78% RH): no significant increase in any related substance
Phase change during DVS experiment ([4]; RH cycled twice 0% to 90% to 0%): no indication of irreversible phase conversion or hydrate formation; also recorded: no irreversible phase changes
